Data: US20220017870A1, “METHODS OF IDENTIFYING THERAPEUTIC TARGETS FOR TREATING ANGIOGENESIS” (Advanced Solutions Life Sciences, LLC, priority 2020, published 2022)

System: growing MVs (neovessels)
Test: Effect of DYRK3 inhibition on MV growth in 3D culture
Type: cell-based, human
Description: FIG. 5. Effect of DYRK3 inhibition on MV growth. Phase contrast images of MVs after 9 days of culture, with a single 3-hour exposure of DYRK3 inhibitor after initial neovessel sprouting (day 4). […] Scale=100 μm. Arrows point to neovessels.
For all assays, MVs isolated from human adipose tissue via a limited collagen digestion are embedded (100,000 MV/ml) in a 3 mg/ml collagen gel. This formulation is compatible with a variety of multi-well plates. Whenever possible, assessments are made daily over the course of 1 week, including image acquisition for HCA.
DYRK3 and angiogenesis: To further explore DYRK3 in this model, growing MVs are treated with the small molecule GSK626616, a known DYRK3 inhibitor. Cultures with growing neovessels (in RPMI with B27 and 50 ng/ml VEGF) were treated with 10 μM GSK626616 for 3 hours, and then returned to medium without inhibitor for an additional 6 days.

[1] = 10 μM for 3 hours, then medium without inhibitor for additional 6 days, RPMI with B27 and 50 ng/ml VEGF, qualitative, vs untreated controls

## O=C1NC(=Nc2c(Cl)cccc2Cl)S/C1=C\c1ccc2nccnc2c1 [GSK626616]
[1]
  impact on parent MV: did not impact parent MV
  neovessel growth: stopped neovessel growth
  neovessel regression: may have even caused neovessel regression
After 9 days of culture, single 3-hour exposure after initial neovessel sprouting (day 4)
  neovessels apparent in phase contrast images: Fewer neovessels are apparent
